# According to PubChem BioAssay AID1963852 (Molecular Pharmacology Branch, DTP, NCI, 2024):
# Several values for one entry are separate records, joined by “and”; a condition that tells them apart may be missing. Equal values may be shown once.
# System: 282377-053-R-J1-PDC complex spheroid viability
# Test: Anticancer human tumor 282377-053-R-J1-PDC patient-derived colon adenocarcinoma cell line growth inhibition [POLQ]
# Conditions: for viability, T/C: stronger effect = lower value
# Experimental: Multicellular complex tumor spheroid response to Polymerase (POL) inhibitors (novobiocin, ART-558, RP6685) in combination with a variety of drugs and investigational agents in selected tumor cell lines
# The POL inhibitors (novobiocin, ART-558, and RP6685) were evaluated both individually and in combination with standard of care and investigational anticancer small molecules within a complex spheroid model of solid tumors. . Complex spheroids include a stromal component modeled by human endothelial cells (HUVEC) and fibroblasts modeled by human mesenchymal stem cells (MSCs). The concentration ranges selected for each drug and investigational agent were based upon clinically achievable concentrations if the clinical Cmax of the agent was known.
# Compounds. The drugs and investigational agents: novobiocin (NSC847541), ART-558 (NSC835418), RP-6685 (NSC848927), peposertib (NSC802822), ceralasertib (NSC780249), elimusertib (NSC800525), camonsertib (NSC841442), AZD-1390 (NSC803789), olaparib (NSC753686), talazoparib (NSC767125), rucaparib (NSC756644), sotorasib (NSC818433), MRTX-1133 (NSC836407), SN-38 (NSC673596), topotecan (NSC609699), epotoside (NSC141540), doxorubicin (NSC123127), gemcitabine (NSC613327), 5-fluorouracil (NSC19893), paclitaxel (NSC125973), vemurafenib (NSC761431), MSA-2 (NSC828583), SN-011 (NSC837082), adavosertib (NSC754352), prexasertib (NSC758257), carboplatin (NSC241240) and oxaliplatin (NSC266046), were obtained from the National Cancer Institute (NCI) Developmental Therapeutics Program Chemical Repository (21). The FDA-approved anticancer drug set is available from the Developmental Therapeutics Program at https://dtp.cancer.gov/organization/dscb/obtaining/. […] The stock solutions were prepared in dimethyl sulfoxide (DMSO, Sigma-Aldrich, St. Louis, MO, cat. D2650), except for the platinum compounds which were prepared in saline (Quality Biological, Gaithersburg, MD, cat. 114-055-101), at 800-fold the tested concentration and stored at -70 degrees C prior to their use. All drugs and investigational agents were tested over a range starting from a high concentration at or near the clinical Cmax and decreasing in half-log increments. If the clinical Cmax for an agent had not been determined, the highest concentration tested was 10 microM, except for SN-38, which was tested at a high concentration of 1 microM.
# Cell Culture. All cells were maintained in an incubator at 37 degrees C and 5% CO2 with 95% humidity. The PDC lines were cultured according to standard operating procedures established by the NCI PDMR (https://pdmr.cancer.gov). Table 3 of the manuscript, lists the cell lines along with the number of the three cell types plated to form the mct-spheroids and media for tumor cell growth. After thawing, all PDC lines, except 997537-175-T-J1-PDC and 415267-285-R-J2-PDC, were cultured in Matrigel-coated flasks prepared with a working solution of 1X Ham's F-12 nutrient mix, without supplementation (Thermo Fisher Scientific, cat. 11765054), 100 U/mL penicillin-streptomycin (Thermo Fisher Scientific, cat. 15140122), and 2.5% Matrigel (Corning Inc., Corning, NY, cat. 354248) for the first three passages. The two PDC lines 997537-175-T-J1-PDC and 415267-285-R-J2-PDC were cultured on uncoated flasks. The 857933-349-R-J2-PDC line was cultured in 6C/Colon 1B media containing advanced DMEM/F-12 (Thermo Fisher Scientific, cat. 12634028), 10 mM HEPES (Thermo Fisher Scientific, cat. 15630080), 1X GlutaMAX supplement (Thermo Fisher Scientific, cat. 35050061), 0.1 mg/mL primocin (InvivoGen, San Diego, CA, cat. ant-pm-2), 10% defined fetal bovine serum, heat inactivated (HyClone Laboratories Inc., Logan, UT, cat. SH30070.03HI), 50% L-WRN conditioned media (ATCC, cat. CRL-3276), 1.25 mM N-Acetyl-L-cysteine (Sigma-Aldrich, cat. A9165), 10 mM nicotinamide (Sigma-Aldrich, cat. N0636), 1X B-27 supplement (Thermo Fisher Scientific, cat. 17504044), 1X N-2 supplement (Thermo Fisher Scientific, cat. […]
# [1] = curve of first compound, second compound 0.0316 µM
# [2] = curve of first compound, second compound 0.1 µM
# [3] = curve of first compound, second compound 0.316 µM
# [4] = curve of first compound, second compound 1 µM
# [5] = curve of first compound, second compound 3.16 µM
# [6] = curve of first compound, second compound 10 µM
# 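Also: spheroids exposed to compounds for seven days.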
# 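For viability, T/C in this document: 100% = DMSO vehicle control viability.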
smiles,measurement,setting,value
CC(=O)O[C@H]1C(=O)[C@@]2(C)[C@H]([C@H](OC(=O)c3ccccc3)[C@]3(O)C[C@H](OC(=O)[C@H](O)[C@@H](NC(=O)c4ccccc4)c4ccccc4)C(C)=C1C3(C)C)[C@]1(OC(C)=O)CO[C@@H]1C[C@@H]2O + COC1C(OC(N)=O)C(O)C(Oc2ccc3c(O)c(NC(=O)c4ccc(O)c(CC=C(C)C)c4)c(=O)oc3c2C)OC1(C)C,IC50,[1],< 9.49 nM
same,IC50,[2],10.4 nM
same,IC50,[3],11.5 nM
same,IC50,[4],11.4 nM
same,IC50,[5],12.6 nM
same,IC50,[6],13.1 nM
same,"viability, T/C","second compound 0.0316 µM, first compound 0.00949 µM",39.3%
same,"viability, T/C","second compound 0.0316 µM, first compound 0.03 µM",18.9%
same,"viability, T/C","second compound 0.0316 µM, first compound 0.0949 µM",19.9%
same,"viability, T/C","second compound 0.0316 µM, first compound 0.3 µM",20.6%
same,"viability, T/C","second compound 0.0316 µM, first compound 0.949 µM",19.5%
same,"viability, T/C","second compound 0.0316 µM, first compound 3 µM",24.1%
same,"viability, T/C","second compound 0.1 µM, first compound 0.00949 µM",52.5%
same,"viability, T/C","second compound 0.1 µM, first compound 0.03 µM",21.9%
same,"viability, T/C","second compound 0.1 µM, first compound 0.0949 µM",20.9%
same,"viability, T/C","second compound 0.1 µM, first compound 0.3 µM",18.1%
same,"viability, T/C","second compound 0.1 µM, first compound 0.949 µM",22.1%
same,"viability, T/C","second compound 0.1 µM, first compound 3 µM",25.3%
same,"viability, T/C","second compound 0.316 µM, first compound 0.00949 µM",55.7%
same,"viability, T/C","second compound 0.316 µM, first compound 0.03 µM",20.8%
same,"viability, T/C","second compound 0.316 µM, first compound 0.0949 µM",19.9%
same,"viability, T/C","second compound 0.316 µM, first compound 0.3 µM",20.7%
same,"viability, T/C","second compound 0.316 µM, first compound 0.949 µM",22.9%
same,"viability, T/C","second compound 0.316 µM, first compound 3 µM",20.6%
same,"viability, T/C","second compound 1 µM, first compound 0.00949 µM",55.6%
same,"viability, T/C","second compound 1 µM, first compound 0.03 µM",20.8%
same,"viability, T/C","second compound 1 µM, first compound 0.0949 µM",16.8%
same,"viability, T/C","second compound 1 µM, first compound 0.3 µM",17.1%
same,"viability, T/C","second compound 1 µM, first compound 0.949 µM",22.2%
same,"viability, T/C","second compound 1 µM, first compound 3 µM",27.9%
same,"viability, T/C","second compound 3.16 µM, first compound 0.00949 µM",58.5%
same,"viability, T/C","second compound 3.16 µM, first compound 0.03 µM",23.8%
same,"viability, T/C","second compound 3.16 µM, first compound 0.0949 µM",15.8%
same,"viability, T/C","second compound 3.16 µM, first compound 0.3 µM",18.2%
same,"viability, T/C","second compound 3.16 µM, first compound 0.949 µM",23.1%
same,"viability, T/C","second compound 3.16 µM, first compound 3 µM",29.4%
same,"viability, T/C","second compound 10 µM, first compound 0.00949 µM",61.4%
same,"viability, T/C","second compound 10 µM, first compound 0.03 µM",20.9%
same,"viability, T/C","second compound 10 µM, first compound 0.0949 µM",16.9%
same,"viability, T/C","second compound 10 µM, first compound 0.3 µM",20.7%
same,"viability, T/C","second compound 10 µM, first compound 0.949 µM",24.5%
same,"viability, T/C","second compound 10 µM, first compound 3 µM",20.2%
COc1cc(C2c3cc4c(cc3C(OC3OC5COC(C)OC5C(O)C3O)C3COC(=O)C23)OCO4)cc(OC)c1O (stereo unspecified) + Cc1cccc(N(C)C(=O)C2C(O)CCN2c2nc(C)cc(C(F)(F)F)c2C#N)c1,IC50,[1],> 10000 nM
same,IC50,[2],> 10000 nM
same,IC50,[3],> 10000 nM
same,IC50,[4],> 10000 nM
same,IC50,[5],> 10000 nM
same,IC50,[6],7510 nM
same,"viability, T/C","second compound 0.0316 µM, first compound 0.0316 µM",139%
same,"viability, T/C","second compound 0.0316 µM, first compound 0.1 µM",104%
same,"viability, T/C","second compound 0.0316 µM, first compound 0.316 µM",128%
same,"viability, T/C","second compound 0.0316 µM, first compound 1 µM",109%
same,"viability, T/C","second compound 0.0316 µM, first compound 3.16 µM",84.8%
same,"viability, T/C","second compound 0.0316 µM, first compound 10 µM",61.4%
same,"viability, T/C","second compound 0.1 µM, first compound 0.0316 µM",112%
same,"viability, T/C","second compound 0.1 µM, first compound 0.1 µM",105%
same,"viability, T/C","second compound 0.1 µM, first compound 0.316 µM",123%
same,"viability, T/C","second compound 0.1 µM, first compound 1 µM",88.7%
same,"viability, T/C","second compound 0.1 µM, first compound 3.16 µM",89.1%
same,"viability, T/C","second compound 0.1 µM, first compound 10 µM",59.1%
same,"viability, T/C","second compound 0.316 µM, first compound 0.0316 µM",108%
same,"viability, T/C","second compound 0.316 µM, first compound 0.1 µM",98.2%
same,"viability, T/C","second compound 0.316 µM, first compound 0.316 µM",119%
same,"viability, T/C","second compound 0.316 µM, first compound 1 µM",116%
same,"viability, T/C","second compound 0.316 µM, first compound 3.16 µM",91%
same,"viability, T/C","second compound 0.316 µM, first compound 10 µM",64.2%
same,"viability, T/C","second compound 1 µM, first compound 0.0316 µM",107%
same,"viability, T/C","second compound 1 µM, first compound 0.1 µM",99%
same,"viability, T/C","second compound 1 µM, first compound 0.316 µM",123%
same,"viability, T/C","second compound 1 µM, first compound 1 µM",98.1%
same,"viability, T/C","second compound 1 µM, first compound 3.16 µM",78.7%
same,"viability, T/C","second compound 1 µM, first compound 10 µM",56.9%
same,"viability, T/C","second compound 3.16 µM, first compound 0.0316 µM",103%
same,"viability, T/C","second compound 3.16 µM, first compound 0.1 µM",102%
same,"viability, T/C","second compound 3.16 µM, first compound 0.316 µM",96.2%
same,"viability, T/C","second compound 3.16 µM, first compound 1 µM",90.1%
same,"viability, T/C","second compound 3.16 µM, first compound 3.16 µM",86.2%
same,"viability, T/C","second compound 3.16 µM, first compound 10 µM",53.9%
same,"viability, T/C","second compound 10 µM, first compound 0.0316 µM",103%
same,"viability, T/C","second compound 10 µM, first compound 0.1 µM",100%
same,"viability, T/C","second compound 10 µM, first compound 0.316 µM",96.5%
same,"viability, T/C","second compound 10 µM, first compound 1 µM",78.2%
same,"viability, T/C","second compound 10 µM, first compound 3.16 µM",62.1%
same,"viability, T/C","second compound 10 µM, first compound 10 µM",46%
CNCc1ccc(-c2[nH]c3cc(F)cc4c3c2CCNC4=O)cc1,"viability, T/C",compound 0.0316 µM,94% and 107% and 86.8%
same,"viability, T/C",compound 0.1 µM,89.3% and 94.2% and 86.3%
same,"viability, T/C",compound 0.316 µM,113% and 102% and 114%
same,"viability, T/C",compound 1 µM,117% and 101% and 95.7%
same,"viability, T/C",compound 3.16 µM,128% and 105% and 116%
same,"viability, T/C",compound 10 µM,125% and 115% and 151%
same,IC50,curve of compound,> 10000 nM
